Experimental data from ChEMBL document CHEMBL1926636, “Isoxazoles incorporated N-substituted decahydroquinolines: a precursor to the next generation antimicrobial drug” (2012).
In brackets after ≈: the same amount, converted by molar mass.

Tests used:
Aspergillus niger [1] = assay: Antifungal activity against Aspergillus niger ATCC 16404 by twofold serial dilution technique; type: functional
[2] = tested on: Lysinibacillus sphaericus; assay: Antibacterial activity against Bacillus sphaericus ATCC 7031 at 10 ug/mL after 24 hrs by disc diffusion method; type: functional; settings: ATCC 7031, 24 h, read-out: IZ
Salmonella typhi [3] = assay: Antibacterial activity against Salmonella typhi ATCC 6539 at 10 ug/mL after 24 hrs by disc diffusion method; type: functional, Salmonella enterica subsp. enterica serovar Typhi; settings: Salmonella enterica, ATCC 6539, 24 h; read-out: IZ
Candida albicans [4] = assay: Antifungal activity against Candida albicans PYCC 3436 by twofold serial dilution technique; type: functional
Salmonella typhi [5] = assay: Antibacterial activity against Salmonella typhi ATCC 6539 by twofold serial dilution technique; type: functional, Salmonella enterica subsp. enterica serovar Typhi; settings: Salmonella enterica
Aspergillus niger [6] = assay: Antifungal activity against Aspergillus niger ATCC 16404 at 10 ug/mL after 72 hrs by agar cup plate method; type: functional; settings: ATCC 16404, 72 h, read-out: IZ
Aspergillus fumigatus [7] = assay: Antifungal activity against Aspergillus fumigatus ATCC 28212 at 10 ug/mL after 72 hrs by agar cup plate method; type: functional; settings: ATCC 28212, 72 h, read-out: IZ
Bacillus subtilis [8] = assay: Antibacterial activity against Bacillus subtilis ATCC 6631 at 10 ug/mL after 24 hrs by disc diffusion method; type: functional; settings: ATCC 6631, 24 h, read-out: IZ
Staphylococcus aureus [9] = assay: Antibacterial activity against Staphylococcus aureus ATCC 6538 by twofold serial dilution technique; type: functional
Staphylococcus aureus [10] = assay: Antibacterial activity against Staphylococcus aureus ATCC 6538 at 10 ug/mL after 24 hrs by disc diffusion method; type: functional; settings: ATCC 6538, 24 h, read-out: IZ
Escherichia coli [11] = assay: Antibacterial activity against Escherichia coli ATCC 35218 by twofold serial dilution technique; type: functional
[12] = tested on: Lysinibacillus sphaericus; assay: Antibacterial activity against Bacillus sphaericus ATCC 7031 by twofold serial dilution technique; type: functional
Candida albicans [13] = assay: Antifungal activity against Candida albicans ATCC 90028 at 10 ug/mL after 72 hrs by agar cup plate method; type: functional; settings: ATCC 90028, 72 h, read-out: IZ
Bacillus subtilis [14] = assay: Antibacterial activity against Bacillus subtilis ATCC 6631 by twofold serial dilution technique; type: functional
Candida albicans [15] = assay: Antifungal activity against Candida albicans ATCC 90028 by twofold serial dilution technique; type: functional
Pseudomonas aeruginosa [16] = assay: Antibacterial activity against Pseudomonas aeruginosa ATCC 9027 at 10 ug/mL after 24 hrs by disc diffusion method; type: functional; settings: ATCC 9027, 24 h, read-out: IZ
Aspergillus fumigatus [17] = assay: Antifungal activity against Aspergillus fumigatus ATCC 28212 by twofold serial dilution technique; type: functional
Escherichia coli [18] = assay: Antibacterial activity against Escherichia coli ATCC 35218 at 10 ug/mL after 24 hrs by disc diffusion method; type: functional; settings: ATCC 35218, 24 h, read-out: IZ
Pseudomonas aeruginosa [19] = assay: Antibacterial activity against Pseudomonas aeruginosa ATCC 9027 by twofold serial dilution technique; type: functional
Candida albicans [20] = assay: Antifungal activity against Candida albicans PYCC 3436 at 10 ug/mL after 72 hrs by agar cup plate method; type: functional; settings: PYCC 3436, 72 h, read-out: IZ

Compound	MIC99 (Aspergillus niger [1]) [mg/L]	zone of inhibition at 10 µg/mL [2] [mm]	zone of inhibition at 10 µg/mL (Salmonella typhi [3]) [mm]	MIC99 (Candida albicans [4]) [mg/L]	MIC99 (Salmonella typhi [5]) [mg/L]	zone of inhibition at 10 µg/mL (Aspergillus niger [6]) [mm]	zone of inhibition at 10 µg/mL (Aspergillus fumigatus [7]) [mm]	zone of inhibition at 10 µg/mL (Bacillus subtilis [8]) [mm]	MIC99 (Staphylococcus aureus [9]) [mg/L]	zone of inhibition at 10 µg/mL (Staphylococcus aureus [10]) [mm]	MIC99 (Escherichia coli [11]) [mg/L]	MIC99 [12] [mg/L]	zone of inhibition at 10 µg/mL (Candida albicans [13]) [mm]	MIC99 (Bacillus subtilis [14]) [mg/L]	MIC99 (Candida albicans [15]) [mg/L]	zone of inhibition at 10 µg/mL (Pseudomonas aeruginosa [16]) [mm]	MIC99 (Aspergillus fumigatus [17]) [mg/L]	zone of inhibition at 10 µg/mL (Escherichia coli [18]) [mm]	MIC99 (Pseudomonas aeruginosa [19]) [mg/L]	zone of inhibition at 10 µg/mL (Candida albicans [20]) [mm]
c1ccc(CN2C(c3ccccc3)C3=C(NOC3c3ccccc3)C3CCCCC32)cc1 (stereo not given)	> 100	11	3	50 (≈ 118 µM)	> 100	4	2	4	100 (≈ 237 µM)	10	100 (≈ 237 µM)	100 (≈ 237 µM)	7	100 (≈ 237 µM)	> 100	3	100 (≈ 237 µM)	4	100 (≈ 237 µM)	10
Clc1ccccc1C1ONC2=C1C(c1ccccc1)N(Cc1ccccc1)C1CCCCC21 (stereo not given)	100 (≈ 219 µM)	13	9	25 (≈ 54.7 µM)	> 100	14	5	5	50 (≈ 109 µM)	12	25 (≈ 54.7 µM)	50 (≈ 109 µM)	22	50 (≈ 109 µM)	25 (≈ 54.7 µM)	6	25 (≈ 54.7 µM)	7	25 (≈ 54.7 µM)	16
O=[N+]([O-])c1cccc(C2ONC3=C2C(c2ccccc2)N(Cc2ccccc2)C2CCCCC32)c1 (stereo not given)	100 (≈ 214 µM)	9	8	25 (≈ 53.5 µM)	> 100	21	5	6	100 (≈ 214 µM)	8	50 (≈ 107 µM)	100 (≈ 214 µM)	24	50 (≈ 107 µM)	25 (≈ 53.5 µM)	5	12.5 (≈ 26.7 µM)	5	25 (≈ 53.5 µM)	16
COc1ccc(C2ONC3=C2C(c2ccccc2)N(Cc2ccccc2)C2CCCCC32)cc1 (stereo not given)	> 100	7	11	50 (≈ 110 µM)	100 (≈ 221 µM)	7	3	5	50 (≈ 110 µM)	14	25 (≈ 55.2 µM)	100 (≈ 221 µM)	14	100 (≈ 221 µM)	50 (≈ 110 µM)	4	100 (≈ 221 µM)	6	100 (≈ 221 µM)	12
Clc1ccc(C2ONC3=C2C(c2ccccc2)N(Cc2ccccc2)C2CCCCC32)cc1 (stereo not given)	100 (≈ 219 µM)	16	9	12.5 (≈ 27.4 µM)	> 100	16	4	6	50 (≈ 109 µM)	14	50 (≈ 109 µM)	25 (≈ 54.7 µM)	21	50 (≈ 109 µM)	25 (≈ 54.7 µM)	5	50 (≈ 109 µM)	4	25 (≈ 54.7 µM)	18
c1ccc(CN2C(c3ccccc3)C3=C(NOC3c3ccco3)C3CCCCC32)cc1 (stereo not given)	> 100	12	2	100 (≈ 242 µM)	> 100	4	4	5	100 (≈ 242 µM)	5	100 (≈ 242 µM)	50 (≈ 121 µM)	12	50 (≈ 121 µM)	100 (≈ 242 µM)	4	50 (≈ 121 µM)	3	50 (≈ 121 µM)	4
c1ccc(CN2C(c3ccccc3)C3=C(NOC3c3ccc4c(c3)OCO4)C3CCCCC32)cc1 (stereo not given)	100 (≈ 214 µM)	11	7	100 (≈ 214 µM)	> 100	11	4	5	100 (≈ 214 µM)	8	50 (≈ 107 µM)	50 (≈ 107 µM)	16	100 (≈ 214 µM)	50 (≈ 107 µM)	5	50 (≈ 107 µM)	4	25 (≈ 53.6 µM)	6
O=C(O)c1cn(C2CC2)c2cc(N3CCNCC3)c(F)cc2c1=O [CIPROFLOXACIN]	–	24	39	–	50 (≈ 151 µM)	–	–	9	25 (≈ 75.4 µM)	17	18 (≈ 54.3 µM)	20 (≈ 60.4 µM)	–	25 (≈ 75.4 µM)	–	8	–	9	12.5 (≈ 37.7 µM)	–
CC(=O)N1CCN(c2ccc(OCC3COC(Cn4ccnc4)(c4ccc(Cl)cc4Cl)O3)cc2)CC1 (stereo not given) [KETOCONAZOLE]	50 (≈ 94.1 µM)	–	–	7.8 (≈ 14.7 µM)	–	25	10	–	–	–	–	–	22	–	25 (≈ 47 µM)	–	7 (≈ 13.2 µM)	–	–	22
